{
  "source": "patent US20100041089A1",
  "about": "“IMPROVED METHOD FOR DETECTING CHEMICAL […]” (priority 2006, published 2010)",
  "system": "yeast genes (expressed mRNA)",
  "experiment": "DNA chip measurement of expressed mRNA of yeast genes after culture with a toxic chemical substance",
  "assay_type": "cell-based, Saccharomyces cerevisiae S288C",
  "conditions": "for level of expressed mRNA in the presence of chemical substance / level in the absence of chemical substance: cultured two hours with the chemical substance; for The level of expressed mRNA in the presence of chemical substance/The level of expressed mRNA in the absence of chemical substance: cultured two hours with substance",
  "summary_of_the_method": "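S. cerevisiae S288C grown at 25 °C in YPD, exposed in log phase for 2 h to a toxicant at growth-inhibiting, non-lethal concentration. Cy3/Cy5-labelled cDNA from poly(A) mRNA hybridized to whole-genome chip at 65 °C >12 h. Ratio to untreated control, ≥2 significant.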",
  "data": [
    {"substance": "Manganese ethylenebis(dithiocarbamate) [(8)]", "values": [
      {"measurement": "level of expressed mRNA in the presence of chemical substance / level in the absence of chemical substance", "setting": "yeast gene YDR128W", "value": 1.1},
      {"measurement": "level of expressed mRNA in the presence of chemical substance / level in the absence of chemical substance", "setting": "yeast gene YDR133C", "value": 0.5},
      {"measurement": "level of expressed mRNA in the presence of chemical substance / level in the absence of chemical substance", "setting": "yeast gene YDR250C", "value": 1.1},
      {"measurement": "level of expressed mRNA in the presence of chemical substance / level in the absence of chemical substance", "setting": "yeast gene YDR278C", "value": 0.5},
      {"measurement": "level of expressed mRNA in the presence of chemical substance / level in the absence of chemical substance", "setting": "yeast gene YDR281C", "value": 1.2},
      {"measurement": "The level of expressed mRNA in the presence of chemical substance/The level of expressed mRNA in the absence of chemical substance", "setting": "yeast gene YDR330W", "value": 1.1},
      {"measurement": "level of expressed mRNA in the presence of chemical substance / level in the absence of chemical substance", "setting": "yeast gene YDR366C", "value": 1.1},
      {"measurement": "The level of expressed mRNA in the presence of chemical substance/The level of expressed mRNA in the absence of chemical substance", "setting": "yeast gene YDR411C", "value": 0.9},
      {"measurement": "The level of expressed mRNA in the presence of chemical substance/The level of expressed mRNA in the absence of chemical substance", "setting": "yeast gene YDR511W", "value": 1.7},
      {"measurement": "The level of expressed mRNA in the presence of chemical substance/The level of expressed mRNA in the absence of chemical substance", "setting": "yeast gene YDR545W", "value": 0.6},
      {"measurement": "The level of expressed mRNA in the presence of chemical substance/The level of expressed mRNA in the absence of chemical substance", "setting": "yeast gene YEL001C", "value": 1.2},
      {"measurement": "The level of expressed mRNA in the presence of chemical substance/The level of expressed mRNA in the absence of chemical substance", "setting": "yeast gene YER004W", "value": 1.1},
      {"measurement": "The level of expressed mRNA in the presence of chemical substance/The level of expressed mRNA in the absence of chemical substance", "setting": "yeast gene YER035W", "value": 1.2},
      {"measurement": "The level of expressed mRNA in the presence of chemical substance/The level of expressed mRNA in the absence of chemical substance", "setting": "yeast gene YER079W", "value": 1.4},
      {"measurement": "The level of expressed mRNA in the presence of chemical substance/The level of expressed mRNA in the absence of chemical substance", "setting": "yeast gene YER106W", "value": 1.2},
      {"measurement": "The level of expressed mRNA in the presence of chemical substance/The level of expressed mRNA in the absence of chemical substance", "setting": "yeast gene YER158C", "value": 0.9},
      {"measurement": "The level of expressed mRNA in the presence of chemical substance/The level of expressed mRNA in the absence of chemical substance", "setting": "yeast gene YER163C", "value": 1.4},
      {"measurement": "The level of expressed mRNA in the presence of chemical substance/The level of expressed mRNA in the absence of chemical substance", "setting": "yeast gene YER175C", "value": 1.1},
      {"measurement": "The level of expressed mRNA in the presence of chemical substance/The level of expressed mRNA in the absence of chemical substance", "setting": "yeast gene YFL006W", "value": 1.0},
      {"measurement": "The level of expressed mRNA in the presence of chemical substance/The level of expressed mRNA in the absence of chemical substance", "setting": "yeast gene YFL010C", "value": 1.0},
      {"measurement": "The level of expressed mRNA in the presence of chemical substance/The level of expressed mRNA in the absence of chemical substance", "setting": "yeast gene YFL024C", "value": 0.9},
      {"measurement": "The level of expressed mRNA in the presence of chemical substance/The level of expressed mRNA in the absence of chemical substance", "setting": "yeast gene YFL032W", "value": 0.4},
      {"measurement": "level of expressed mRNA in the presence of chemical substance / level in the absence of chemical substance", "setting": "yeast gene YFR026C", "value": 1.3},
      {"measurement": "The level of expressed mRNA in the presence of chemical substance/The level of expressed mRNA in the absence of chemical substance", "setting": "yeast gene YGL037C", "value": 1.2},
      {"measurement": "The level of expressed mRNA in the presence of chemical substance/The level of expressed mRNA in the absence of chemical substance", "setting": "yeast gene YGL047W", "value": 1.1},
      {"measurement": "The level of expressed mRNA in the presence of chemical substance/The level of expressed mRNA in the absence of chemical substance", "setting": "yeast gene YGL053W", "value": 1.2},
      {"measurement": "level of expressed mRNA in the presence of chemical substance / level in the absence of chemical substance", "setting": "yeast gene YGL088W", "value": 0.5},
      {"measurement": "The level of expressed mRNA in the presence of chemical substance/The level of expressed mRNA in the absence of chemical substance", "setting": "yeast gene YGL121C", "value": 3.0},
      {"measurement": "The level of expressed mRNA in the presence of chemical substance/The level of expressed mRNA in the absence of chemical substance", "setting": "yeast gene YGL199C", "value": 0.7},
      {"measurement": "level of expressed mRNA in the presence of chemical substance / level in the absence of chemical substance", "setting": "yeast gene YGR038W", "value": 0.7},
      {"measurement": "The level of expressed mRNA in the presence of chemical substance/The level of expressed mRNA in the absence of chemical substance", "setting": "yeast gene YGR101W", "value": 0.8},
      {"measurement": "The level of expressed mRNA in the presence of chemical substance/The level of expressed mRNA in the absence of chemical substance", "setting": "yeast gene YGR110W", "value": 1.5},
      {"measurement": "The level of expressed mRNA in the presence of chemical substance/The level of expressed mRNA in the absence of chemical substance", "setting": "yeast gene YGR130C", "value": 0.9},
      {"measurement": "level of expressed mRNA in the presence of chemical substance / level in the absence of chemical substance", "setting": "yeast gene YGR139W", "value": 0.6},
      {"measurement": "The level of expressed mRNA in the presence of chemical substance/The level of expressed mRNA in the absence of chemical substance", "setting": "yeast gene YGR154C", "value": 1.7},
      {"measurement": "The level of expressed mRNA in the presence of chemical substance/The level of expressed mRNA in the absence of chemical substance", "setting": "yeast gene YGR221C", "value": 1.1},
      {"measurement": "level of expressed mRNA in the presence of chemical substance / level in the absence of chemical substance", "setting": "yeast gene YGR243W", "value": 1.3},
      {"measurement": "level of expressed mRNA in the presence of chemical substance / level in the absence of chemical substance", "setting": "yeast gene YGR293C", "value": 1.3},
      {"measurement": "level of expressed mRNA in the presence of chemical substance / level in the absence of chemical substance", "setting": "yeast gene YHL006C", "value": 1.1},
      {"measurement": "level of expressed mRNA in the presence of chemical substance / level in the absence of chemical substance", "setting": "yeast gene YHR095W", "value": 1.0},
      {"measurement": "level of expressed mRNA in the presence of chemical substance / level in the absence of chemical substance", "setting": "yeast gene YHR105W", "value": 1.0},
      {"measurement": "The level of expressed mRNA in the presence of chemical substance/The level of expressed mRNA in the absence of chemical substance", "setting": "yeast gene YHR138C", "value": 1.4},
      {"measurement": "level of expressed mRNA in the presence of chemical substance / level in the absence of chemical substance", "setting": "yeast gene YHR181W", "value": 0.9},
      {"measurement": "The level of expressed mRNA in the presence of chemical substance/The level of expressed mRNA in the absence of chemical substance", "setting": "yeast gene YHR199C", "value": 1.0},
      {"measurement": "The level of expressed mRNA in the presence of chemical substance/The level of expressed mRNA in the absence of chemical substance", "setting": "yeast gene YIL023C", "value": 0.7},
      {"measurement": "The level of expressed mRNA in the presence of chemical substance/The level of expressed mRNA in the absence of chemical substance", "setting": "yeast gene YIL041W", "value": 0.9},
      {"measurement": "The level of expressed mRNA in the presence of chemical substance/The level of expressed mRNA in the absence of chemical substance", "setting": "yeast gene YIL087C", "value": 1.1},
      {"measurement": "level of expressed mRNA in the presence of chemical substance / level in the absence of chemical substance", "setting": "yeast gene YIL127C", "value": 1.2},
      {"measurement": "level of expressed mRNA in the presence of chemical substance / level in the absence of chemical substance", "setting": "yeast gene YJL017W", "value": 1.0},
      {"measurement": "level of expressed mRNA in the presence of chemical substance / level in the absence of chemical substance", "setting": "yeast gene YJL037W", "value": 1.2},
      {"measurement": "The level of expressed mRNA in the presence of chemical substance/The level of expressed mRNA in the absence of chemical substance", "setting": "yeast gene YJL057C", "value": 1.5},
      {"measurement": "The level of expressed mRNA in the presence of chemical substance/The level of expressed mRNA in the absence of chemical substance", "setting": "yeast gene YJL066C", "value": 0.8},
      {"measurement": "The level of expressed mRNA in the presence of chemical substance/The level of expressed mRNA in the absence of chemical substance", "setting": "yeast gene YJL082W", "value": 0.9}
    ]}
  ]
}
